This passage reports logP, efficacy and chromatographic logP results from patent US8440836B2, “Heterocyclic alkanol derivatives” (Bayer Intellectual Property GmbH, priority 2010, dated 2013).

As usually defined, the chromatographic logP is a lipophilicity value derived from retention on a column. A high value points to higher lipophilicity.

The nature of data set [1]: logP by HPLC (EEC Directive 79/831 Annex V.A8). The format is physicochemical. As to conditions: HPLC reversed-phase C18, method [a]: LC-MS, pH 2.7, 0.1% aqueous formic acid / acetonitrile, gradient 10% to 95% acetonitrile.
Data set [2] has as its system Sphaerotheca fuliginea. The experiment in a line: Sphaerotheca test (cucumber)/protective. The following applies: cucumber plants, protective spray, 500 ppm active ingredient, evaluation 7 days after inoculation.
Method: • Solvent: 49 parts by weight of N,N-dimethylformamide • Emulsifier: 1 part by weight of alkylaryl polyglycol ether
To produce an appropriate active ingredient formulation, 1 part by weight of active ingredient is mixed with the specified amounts of solvent and emulsifier, and the concentrate is diluted with water to the desired concentration. To test for protective activity, young cucumber plants are sprayed with the formulation of active ingredient at the stated application rate. 1 day after the treatment, the plants are inoculated with a spore suspension of Sphaerotheca fuliginea. The plants are then placed in a greenhouse at 70% relative air humidity and a temperature of 23° C. Evaluation follows 7 days after the inoculation.
In data set [3] the test system is Blumeria graminis f.sp. hordei. The experiment in a line: Blumeria graminis test (barley)/protective. The format is in vivo. The following applies: barley plants, protective spray, 500 ppm active ingredient, evaluation 7 days after inoculation.

On to `OC(Cc1ccccc1Cl)(c1cncs1)C1(F)CC1` (stereo not drawn) [Compound 11], for which the logP result in data set [1] was “logP 2.64^[a]; [M + H]^+ = 298”. Besides, the results for the efficacy in data set [2] and in data set [3] were 70% and 78%, respectively.

The compound `CC(C)C(O)(COc1ccc(Br)cc1)c1cncs1` (stereo not drawn) [Compound 22] yielded an efficacy in data set [2] of 96%.

For `CC(C)(C)C(O)(COc1ccc(-c2ccc(C#N)cc2)cc1)c1cncs1` (stereo not drawn) [Compound 51], in data set [1], the logP entry is “logP 3.46^[a]; [M + H]^+ = 379”. Besides, the efficacy in data set [2] was found to be 94%.

`CC(C)(C)C(O)(COc1ccc(-c2ccc(C(F)(F)F)cc2)cc1)c1cncs1` (stereo not drawn) [Compound 30]: in data set [1], the logP entry was “logP 4.62^[a]; [M + H]^+ = 422”.

Regarding `CC(C)C(O)(COc1ccc(I)cc1)c1cncs1` (stereo not drawn) [Compound 21], in data set [2], the efficacy is listed as 85%.

As to `CC1(C(O)(COc2cccc(I)c2)c2cncs2)CC1` (stereo not drawn) [Compound 26], the logP entry in data set [1] is “logP 3.41^[a]; [M + H]^+ = 402”. The compound also returned an efficacy in data set [2] of 75%.

For `OC(COc1ccc(I)cc1)(c1cncs1)C1(C(F)(F)F)CC1` (stereo not drawn) [Compound 81], the logP entry in data set [1] is “logP 3.59^[a]; [M + H]^+ = 456”.

In the case of `CC(C)(/C=C/Cl)C(O)(COc1ccc(Cl)cc1)c1cncs1` (stereo not drawn) [Compound 54], the logP entry in data set [1] was “logP 3.67^[a]; [M + H]^+ = 358”. In data set [2], this compound had an efficacy of 95%.

Turning to `CC(C)(C)C(O)(COc1ccc(-c2ccc(I)cc2)cc1)c1cncs1` (stereo not drawn) [Compound 19], the logP entry in data set [1] is “logP 4.89^[a]; [M + H]^+ = 480”.

Compound `CC(C)C(O)(COc1ccc(Cl)cc1)c1cncs1` (stereo not drawn) [Compound 23] returned an efficacy in data set [2] of 80%.

For the compound `CC(C)[Si](c1ncc(C(O)(Cc2ccccc2Cl)C2(Cl)CC2)o1)(C(C)C)C(C)C` (stereo not drawn) [Compound 68], the logP entry in data set [1] was “logP 7.18^[a]; [M + H]^+ = 455”.

`CC(C)(C)C(O)(CCc1ccc(Br)cc1)c1cncs1` (stereo not drawn) [Compound 72]: the logP result in data set [1] was “logP 3.69^[a]; [M + H]^+ = 354, 356”. The efficacy in data set [2] is on record as 100%.

On to `CC(C)(C)C(O)(CCc1ccc(OC(F)(F)F)cc1)c1cncs1` (stereo not drawn) [Compound 74], for which the logP entry in data set [1] was “logP 3.93^[a]; [M + H]^+ = 360”. In data set [2], the efficacy stood at 100%.

In the case of `CC(C)(C)c1ccc(OCC(O)(c2cncs2)C(C)(C)C)cc1` (stereo not drawn) [Compound 40], the logP result in data set [1] is “logP 4.39^[a]; [M + H]^+ = 334”. This compound displayed an efficacy in data set [2] of 90%.

Consider `CC(C)(C)C(O)(COc1ccc(-c2ccc(Br)cc2)cc1)c1cncs1` (stereo not drawn) [Compound 52], for which, in data set [1], the logP entry is “logP 4.71^[a]; [M + H]^+ = 432/434”. In addition, the efficacy in data set [2] is recorded as 100%.

`OC(COc1ccc(Br)cc1)(c1cncs1)C1(C(F)(F)F)CC1` (stereo not drawn) [Compound 82]: the logP result in data set [1] was “logP 3.43^[a]; [M + H]^+ = 408/410”.

For `CC(C)(C)C(O)(CCc1ccc(Cl)cc1)Cc1cncs1` (stereo not drawn) [Compound 18], the efficacy in data set [2] is recorded as 95%.

Turning to `COc1ccc(CCC(O)(c2cncs2)C(C)(C)C)cc1` (stereo not drawn) [Compound 73], the logP entry in data set [1] is “logP 2.94^[a]; [M + H]^+ = 306”. Further, the efficacy in data set [2] is recorded as 78%.

`COc1cc(-c2ccccc2)ccc1OCC(O)(c1cncs1)C(C)(C)C` (stereo not drawn) [Compound 49]: the logP result in data set [1] is “logP 4.02^[a]; [M + H]^+ = 384”.

`CC1(C(O)(COc2ccccc2Br)c2cncs2)CC1` (stereo not drawn) [Compound 24] showed an efficacy in data set [2] of 83%.

For `OC(Cc1ccccc1Cl)(c1cnco1)C1(Cl)CC1` (stereo not drawn) [Compound 69], in data set [1], the logP result is “logP 2.88^[a]; [M + H]^+ = 299”.

With `CC(C)(C)C(O)(COc1ccc(Oc2ccc(F)cc2)cc1)c1cncs1` (stereo not drawn) [Compound 38], the logP result in data set [1] is “logP 4.03^[a]; [M + H]^+ = 388”. For the same compound, the efficacy in data set [2] stood at 98%.

For the compound `CC(C)(C)C(O)(COc1ccc(C2CCCCC2)cc1)c1cncs1` (stereo not drawn) [Compound 37], the logP result in data set [1] is “logP 5.21^[a]; [M + H]^+ = 360”. For the same compound, the efficacy in data set [2] is 100%.

For `OC(Cc1ccccc1Cl)(c1cncs1)C1(Cl)CC1` (stereo not drawn) [Compound 7], in data set [2], the efficacy is listed as 83%.

In the case of `CC(CF)(CF)C(O)(COc1ccc(Cl)cc1)Cc1cncs1` (stereo not drawn) [Compound 67], in data set [1], the logP entry was “logP 3.04^[a]; [M + H]^+ = 362”. In data set [2], this compound came in with an efficacy of 95%.

In the case of `CC(CF)(CF)C(O)(COc1ccc(Cl)cc1)c1cncs1` (stereo not drawn) [Compound 9], the logP result in data set [1] is “logP 2.94^[a]; [M + H]^+ = 348”. Further, in data set [2], the efficacy stood at 95%.

For the compound `CC(C)(C)C(O)(COc1ccc(-c2ccccc2)cc1)c1cncs1` (stereo not drawn) [Compound 50], the logP result in data set [1] was “logP 4.03^[a]; [M + H]^+ = 354”. Moreover, in data set [2], the efficacy was determined as 100%.

In the case of `OC(Cc1cnc(I)s1)(Cc1ccccc1Cl)C1(Cl)CC1` (stereo not drawn) [Compound 39], the efficacy is 100% in data set [2] and 90% in data set [3].

In data set [1] (reversed-phase C18 HPLC column), `CC(C)(C)C(O)(Cc1ccc(F)cc1)c1cncs1` (stereo not drawn) [Compound 48] yielded a chromatographic logP of 2.91.

Turning to `CC(CF)(CF)C(O)(Cc1ccccc1F)c1cncs1` (stereo not drawn) [Compound 47], the logP result in data set [1] was “logP 2.47^[a]; [M + H]^+ = 316”.

For `OC(Cc1cnc(Cl)s1)(Cc1ccccc1F)C1(Cl)CC1` (stereo not drawn) [Compound 59], the logP result in data set [1] is “logP 4.21^[a]; [M + H]^+ = 346”.

Take `CC(C)(C)C(O)(COc1ccc(C2CCCC2)cc1)c1cncs1` (stereo not drawn) [Compound 80]: the logP entry in data set [1] was “logP 4.78^[a]; [M + H]^+ = 346”. This compound had an efficacy in data set [2] of 94%.

For the compound `CC1(C(O)(COc2ccc(Cl)cc2)c2cncs2)CCCCC1` (stereo not drawn) [Compound 34], the logP result in data set [1] was “logP 4.25^[a]; [M + H]^+ = 352”. In addition, in data set [2], the efficacy worked out at 99%.

Regarding `CC(C)(C)C(O)(COc1ccc(Oc2ccc(C(F)(F)F)cc2)cc1)c1cncs1` (stereo not drawn) [Compound 32], in data set [1], the logP entry is “logP 4.63^[a]; [M + H]^+ = 438”. Also, the efficacy in data set [2] was 96%.

In data set [2], `CC(C)(C)C(O)(CCc1ccc(SC(F)(F)F)cc1)c1cncs1` (stereo not drawn) [Compound 6] displayed an efficacy of 100%.

Consider `CC(C)(C)C(O)(CCc1ccc(N)cc1)c1cncs1` (stereo not drawn) [Compound 76], for which the logP result in data set [1] is “logP 1.16; [M + H]^+ = 291”.

Turning to `CC(C)(C)C(O)(CCc1ccc(Cl)cc1)c1cnco1` (stereo not drawn) [Compound 71], the logP entry in data set [1] was “logP 3.45^[a]; [M + H]^+ = 294”.

As to `CC(CF)(CF)C(O)(COc1ccc(Cl)cc1)Cc1cnc(Cl)s1` (stereo not drawn) [Compound 65], in data set [1], the logP result is “logP 3.94^[a]; [M + H]^+ = 397”.

On to `CC(C)(C)C(O)(COc1ccc(F)cc1)Cc1cncs1` (stereo not drawn) [Compound 66], for which the logP result in data set [1] is “logP 3.16^[a]; [M + H]^+ = 310”.

Consider `CC(CF)(CF)C(O)(Cc1ccccc1Cl)c1cncs1` (stereo not drawn) [Compound 46], for which the logP entry in data set [1] is “logP 2.78^[a]; [M + H]^+ = 332”.

As to `CC(C)(C)C(O)(COc1cccc(Oc2ccccc2)c1)c1cncs1` (stereo not drawn) [Compound 43], the logP result in data set [1] was “logP 3.98^[a]; [M + H]^+ = 370”.

Take `CC1(C(O)(COc2ccccc2I)c2cncs2)CC1` (stereo not drawn) [Compound 55]: the logP entry in data set [1] is “logP 3.33^[a]; [M + H]^+ = 402”.

In data set [2], `CC(C)(C)C(O)(CCc1ccc(Cl)cc1)c1cncs1` (stereo not drawn) [Compound 5] returned an efficacy of 100%.

As to `CC(C)(C)C(O)(COc1ccc(Cl)cc1)Cc1cncs1` (stereo not drawn) [Compound 64], in data set [1], the logP entry was “logP 3.49^[a]; [M + H]^+ = 326”. In addition, the efficacy in data set [2] was 100%.

Turning to `CC(C)(C)C(O)(COc1ccc(Oc2ccc(Cl)cc2)cc1)c1cncs1` (stereo not drawn) [Compound 29], the logP entry in data set [1] was “logP 4.50^[a]; [M + H]^+ = 404”. The same compound gave an efficacy in data set [2] of 98%.

As for `CC(C)(C)C(O)(COc1ccc(SC(F)(F)Cl)cc1)c1cncs1` (stereo not drawn) [Compound 58], the logP result in data set [1] is “logP 4.23^[a]; [M + H]^+ = 394”.

In the case of `CC(=O)c1ccc(-c2ccc(OCC(O)(c3cncs3)C(C)(C)C)cc2)cc1` (stereo not drawn) [Compound 31], in data set [2], the efficacy was found to be 100%.

In data set [2], `CC(C)C(O)(COc1ccc(SC(F)(F)F)cc1)c1cncs1` (stereo not drawn) [Compound 17] registered an efficacy of 93%.

Consider `CC(C)(C)C(O)(COc1ccc(Cl)cc1)Cc1cnc(Cl)s1` (stereo not drawn) [Compound 61], for which the logP entry in data set [1] was “logP 4.68^[a]; [M + H]^+ = 360”.

For `CC1(C(O)(COc2cccc(Br)c2)c2cncs2)CC1` (stereo not drawn) [Compound 27], the logP result in data set [1] is “logP 3.24^[a]; [M + H]^+ = 354, 356”. In data set [2], this compound had an efficacy of 93%.

Turning to `OC(COc1ccc(Cl)cc1)(c1cncs1)C1(Cl)CC1` (stereo not drawn) [Compound 16], the efficacy in data set [2] is listed as 78%.

As to `CC(C)(C)C(O)(COc1ccc(Oc2ccc(Br)cc2)cc1)c1cncs1` (stereo not drawn) [Compound 28], in data set [1], the logP entry was “logP 4.66^[a]; [M + H]^+ = 448/450”. The compound also returned an efficacy in data set [2] of 95%.

Turning to `CC1(C(O)(COc2cccc([N+](=O)[O-])c2)c2cncs2)CC1` (stereo not drawn) [Compound 45], the logP entry in data set [1] was “logP 2.62^[a]; [M + H]^+ = 321”.

As for `CC(C)[Si](c1ncc(C(O)(CCc2ccc(Cl)cc2)C(C)(C)C)o1)(C(C)C)C(C)C` (stereo not drawn) [Compound 70], the logP result in data set [1] is “logP 7.36^[a]; [M + H]^+ = 451”.

As to `CC(C)(C)C(O)(CCc1ccc([N+](=O)[O-])cc1)c1cncs1` (stereo not drawn) [Compound 75], the logP result in data set [1] was “logP 2.98^[a]; [M + H]^+ = 321”.

`CCN(C)C=Nc1ccc(CCC(O)(c2cncs2)C(C)(C)C)cc1` (stereo not drawn) [Compound 78]: the logP result in data set [1] is “logP 1.33^[a]; [M + H]^+ = 360”.

For `CC(C)(C)C(O)(COc1ccc(I)cc1)Cc1cnc(Cl)s1` (stereo not drawn) [Compound 62], the logP result in data set [1] is “logP 5.12^[a]; [M + H]^+ = 452”.

As for `CC(C)(C)C(O)(COc1ccc(F)cc1)Cc1cnc(Cl)s1` (stereo not drawn) [Compound 63], in data set [1], the logP result is “logP 4.20^[a]; [M + H]^+ = 344”.

Regarding `CC(CF)(CF)C(O)(COc1ccc(Br)cc1)c1cncs1` (stereo not drawn) [Compound 8], the logP result in data set [1] is “logP 3.02^[a]; [M + H]^+ = 392/394”. Also, the efficacy is recorded as 94% in data set [2] and 89% in data set [3].

As for `CC(C)(C)C(O)(COc1ccc(-c2ccc(Cl)cc2)cc1)c1cncs1` (stereo not drawn) [Compound 36], the logP result in data set [1] is “logP 4.55^[a]; [M + H]^+ = 388”. In data set [2], the efficacy is listed as 98%.

For `CC(C)(C)c1ccc(CCC(O)(c2cncs2)C(C)(C)C)cc1` (stereo not drawn) [Compound 77], the logP result in data set [1] is “logP 1.98^[a]; [M + H]^+ = 333”.
